Laboratory results as given in US9770446B2, “Piperidine urea derivatives” (MERCK PATENT GMBH, priority 2013, dated 2017).

Legend:
Type in all cases: biochemical
[1] = molecular target: T1, GST-tagged Tankyrase-1 (1023-1327 aa) (Homo sapiens, UniProt O95271); assay: Tankyrase 1 autoparsylation HTRF enzyme assay; settings: read-out: IC50 TNKS1 enzyme assay
T1 construct: GST-tagged Tankyrase-1 (1023-1327 aa)
Protocol: (§1) Biochemical activity testing of Tankyrase 1 and 2: Autoparsylation assay
(§2) The autoparsylation assay is run in two steps: the enzymatic reaction in which GST-tagged Tankyrase-1, resp Tankyrase-2 transferred biotinylated ADP-ribose to itself from biotinylated NAD as co-substrate and the detection reaction where a time resolved FRET between cryptate labelled anti-GST bound to the GST tag of the enzyme and Xlent® labelled-streptavidin bound the biotin-parsylation residue is analysed. The autoparsylation activity was detectable directly via the increase in HTRF signal.
(§3) The autoparsylation assay is performed as 384-well HTRF® (Cisbio, Codolet, France) assay format in Greiner low volume nb 384-well microtiter plates and is used for high throughput screen. 250 nM GST-tagged Tankyrase-1 (1023-1327 aa), respectively about 250 nM GST-tagged Tankyrase-2 (873-1166 aa) and 5 μM bio-NAD (Biolog, Life science Inst., Bremen, Germany) as co-substrate are incubated in a total volume of 5 μl (50 mM HEPES, 4 mM Mg-chloride, 0.05% Pluronic F-68, 1.4 mM DTT, 0.5% DMSO, pH 7.7) in the absence or presence of the test compound (10 dilution concentrations) for 90 min at 30° C. The reaction is stopped by the addition of 1 μl 50 mM EDTA solution. 2 μl of the detection solution (1.6 μM SA-Xlent® (Cisbio, Codolet, France), 7.4 nM Anti-GST-K® (Eu-labelled anti-GST, Cisbio, Codolet, France) in 50 mM HEPES, 800 mM KF, 0.1% BSA, 20 mM EDTA, 0.1% CHAPS, pH 7.0) are added. After 1 h incubation at room temperature the HTRF is measured with an Envision multimode reader (Perkin Elmer LAS Germany GmbH) at excitation wavelength 340 nm (laser mode) and emission wavelengths 615 nm and 665 nm. The ratio of the emission signals is determined. The full value used is the inhibitor-free reaction. The pharmacological zero value used is XAV-939 (Tocris) in a final concentration of 5 μM. The inhibitory values (IC50) are determined using either the program Symyx Assay Explorer® or Condosseo® from GeneData.

[2] = molecular target: T2, GST-tagged Tankyrase-2 (873-1166 aa) (Homo sapiens, UniProt Q9H2K2); assay: Tankyrase 2 autoparsylation HTRF enzyme assay; settings: read-out: IC50 TNKS2 enzyme assay
T2 construct: GST-tagged Tankyrase-2 (873-1166 aa)
T2 sequence (Q9H2K2 873-1166): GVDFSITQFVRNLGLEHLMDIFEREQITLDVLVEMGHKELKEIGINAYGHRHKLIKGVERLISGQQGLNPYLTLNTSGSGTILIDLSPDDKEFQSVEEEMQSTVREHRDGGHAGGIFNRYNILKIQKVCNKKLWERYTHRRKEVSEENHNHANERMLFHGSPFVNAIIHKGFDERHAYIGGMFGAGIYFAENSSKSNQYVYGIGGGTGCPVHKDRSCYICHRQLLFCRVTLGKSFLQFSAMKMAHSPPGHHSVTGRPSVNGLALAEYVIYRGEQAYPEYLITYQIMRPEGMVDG
Protocol: as §1, §2, §3

His-tagged Parp-1 = molecular target: T3, His-tagged Parp-1 (Homo sapiens, UniProt P09874); assay: PARP-1 autoparsylation HTRF assay
T3 construct: purchased Enzo Life Sciences GmbH, Lörrach, Germany
T3 sequence (P09874 whole entry): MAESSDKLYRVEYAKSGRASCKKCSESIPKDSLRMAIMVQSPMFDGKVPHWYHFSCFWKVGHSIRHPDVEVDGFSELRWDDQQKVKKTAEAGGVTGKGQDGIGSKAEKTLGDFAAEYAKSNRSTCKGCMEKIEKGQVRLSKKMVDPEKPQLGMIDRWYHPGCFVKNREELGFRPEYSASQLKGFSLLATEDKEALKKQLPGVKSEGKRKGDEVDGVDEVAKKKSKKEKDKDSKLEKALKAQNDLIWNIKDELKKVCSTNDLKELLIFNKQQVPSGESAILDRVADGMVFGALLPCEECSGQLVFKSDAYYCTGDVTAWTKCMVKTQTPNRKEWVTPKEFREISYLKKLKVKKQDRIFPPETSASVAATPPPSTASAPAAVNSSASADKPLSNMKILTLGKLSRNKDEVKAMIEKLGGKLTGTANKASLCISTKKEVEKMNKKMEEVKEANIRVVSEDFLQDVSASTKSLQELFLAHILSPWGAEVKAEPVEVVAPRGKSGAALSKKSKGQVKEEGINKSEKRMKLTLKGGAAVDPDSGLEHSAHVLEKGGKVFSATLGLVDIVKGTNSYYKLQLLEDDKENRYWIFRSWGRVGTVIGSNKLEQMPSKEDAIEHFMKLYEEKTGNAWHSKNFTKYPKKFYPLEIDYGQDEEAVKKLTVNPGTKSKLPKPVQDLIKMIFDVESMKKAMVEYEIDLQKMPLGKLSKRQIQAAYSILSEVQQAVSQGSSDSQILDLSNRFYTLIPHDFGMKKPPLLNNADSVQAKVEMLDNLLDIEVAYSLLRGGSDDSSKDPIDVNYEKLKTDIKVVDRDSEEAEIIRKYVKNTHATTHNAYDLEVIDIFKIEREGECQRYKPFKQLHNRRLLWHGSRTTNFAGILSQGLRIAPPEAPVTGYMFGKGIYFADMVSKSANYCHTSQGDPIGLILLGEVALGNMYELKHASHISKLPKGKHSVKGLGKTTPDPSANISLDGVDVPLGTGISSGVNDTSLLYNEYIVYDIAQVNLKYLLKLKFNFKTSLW
Source text: Description of the PARP1 Assay
Biochemical Activity Testing of PARP-1: Autoparsylation Assay
as §2, with “His-tagged Parp-1 transfers” for “GST-tagged Tankyrase-1, resp Tankyrase-2 transferred”, “ADP-ribose/ADP-ribose” for “ADP-ribose”, “NAD/NAD” for “NAD”, “anti-His antibody” for “anti-GST”, “His” for “GST”, “is” for “was”
The autoparsylation assay is performed as 384-well HTRF® (Cisbio, Codolet, France) assay format in Greiner low volume nb 384-well microtiter plates. 35 nM His-tagged Parp-1 (human, recombinant, Enzo Life Sciences GmbH, Lörrach, Germany) and a mixture of 125 nM bio-NAD (Biolog, Life science Inst., Bremen, Germany) and 800 nM NAD as co-substrate are incubated in a total volume of 6 μl (100 mM Tris/HCl, 4 mM Mg-chloride, 0.01% IGEPAL® CA630, 1 mM DTT, 0.5% DMSO, pH 8, 13 ng/μl activated DNA (BPS Bioscience, San Diego, US)) in the absence or presence of the test compound (10 dilution concentrations) for 150 min at 23° C. The reaction is stopped by the addition of 4 μl of the Stop/detection solution (70 nM SA-Xlent® (Cisbio, Codolet, France), 2.5 nM Anti-His-K® (Eu-labelled anti-His, Cisbio, Codolet, France) in 50 mM HEPES, 400 mM KF, 0.1% BSA, 20 mM EDTA, pH 7.0). After 1 h incubation at room temperature the HTRF iss measured with an Envision multimode reader (Perkin Elmer LAS Germany GmbH) at excitation wavelength 340 nm (laser mode) and emission wavelengths 615 nm and 665 nm. The ratio of the emission signals is determined. The full value used is the inhibitor-free reaction. The pharmacological zero value used is Olaparib (LClabs, Woburn, US) in a final concentration of 1 μM. The inhibitory values (IC50) are determined using either the program Symyx Assay Explorer® or Condosseo® from GeneData.

T1 sequence (O95271 1023-1327): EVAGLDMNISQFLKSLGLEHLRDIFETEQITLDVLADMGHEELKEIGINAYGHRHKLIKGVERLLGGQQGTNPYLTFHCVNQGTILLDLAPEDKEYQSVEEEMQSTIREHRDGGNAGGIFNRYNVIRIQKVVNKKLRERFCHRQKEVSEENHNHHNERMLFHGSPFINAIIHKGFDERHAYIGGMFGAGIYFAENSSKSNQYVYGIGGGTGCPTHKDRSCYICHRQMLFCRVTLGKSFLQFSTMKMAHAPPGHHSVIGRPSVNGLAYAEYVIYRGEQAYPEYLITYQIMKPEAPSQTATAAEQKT

Row | Compound | IC50 [1] [µM] | IC50 [2] [µM] | IC50 (His-tagged Parp-1) [µM]
1 | CCN(C(=O)N1CCC(C(=O)c2cccc(C)c2)CC1)c1ccc(OC)cc1 [Compound A26, 4-(3-methyl-benzoyl)-piperidine-1-carboxylic acid ethyl-(4-methoxy-phenyl)amide] | < 0.3 | 0.3 to 3 | 3 to 50
2 | COc1ccc(N(C)C(=O)N2CCC(C(=O)c3cccc(C)c3)CC2)cc1 [Compound A25, 4-(3-methyl-benzoyl)-piperidine-1-carboxylic acid (4-methoxy-phenyl)methyl-amide] | < 0.3 | 0.3 to 3 | 3 to 50
3 | COc1ccc(N(C)C(=O)N2CCC(C(=O)c3cccc(F)c3)CC2)cc1 [Compound A7, 4-(3-fluoro-benzoyl)-piperidine-1-carboxylic acid (4-methoxy-phenyl)-methylamide] | 0.3 to 3 | 0.3 to 3 | 3 to 50
4 | CN(C(=O)N1CCC(C(=O)c2ccc(NS(C)(=O)=O)cc2)CC1)c1ccccc1 [Compound A38, 4-(4-methanesulfonylamino-benzoyl)-piperidine-1-carboxylic acid methyl-phenyl-amide] | < 0.3 | 0.3 to 3 | 3 to 50
5 | COc1ccc(N(C)C(=O)N2CCC(C(=O)c3ccc(F)cc3)CC2)cc1 [Compound A8, 4-(4-fluoro-benzoyl)-piperidine-1-carboxylic acid (4-methoxy-phenyl)-methylamide] | 0.3 to 3 | 0.3 to 3 | 3 to 50
6 | COc1ccc(N(C)C(=O)N2CCC(C(=O)c3ccccc3)CC2)cc1 [Compound A4, 4-benzoyl-piperidine-1-carboxylic acid (4-methoxy-phenyl)-methyl-amide] | 0.3 to 3 | 0.3 to 3 | 3 to 50
7 | COc1ccc(C(=O)C2CCN(C(=O)N3CCc4ccccc43)CC2)cc1 [Compound A18, (2,3-dihydro-indol-1-yl)-[4-(4-methoxy-benzoyl)-piperidin-1-yl]-methanone] | 0.3 to 3 | 0.3 to 3 | 3 to 50
8 | COc1ccc(C(=O)C2CCN(C(=O)N(C)c3ccc(OC)cc3)CC2)cc1 [Compound A6, 4-(4-methoxy-benzoyl)-piperidine-1-carboxylic acid (4-methoxy-phenyl)methyl-amide] | < 0.3 | 0.3 to 3 | 3 to 50
9 | CCN(C(=O)N1CCC(C(=O)c2ccccc2)CC1)c1ccc(OC)cc1 [Compound A14, 4-benzoyl-piperidine-1-carboxylic acid ethyl-(4-methoxy-phenyl)-amide] | < 0.3 | 0.3 to 3 | 3 to 50
10 | Cc1cccc(N(C)C(=O)N2CCC(C(=O)c3ccccc3)CC2)c1 [Compound A1, 4-benzoyl-piperidine-1-carboxylic acid methyl-m-tolyl-amide] | 0.3 to 3 | 0.3 to 3 | 3 to 50
11 | CCN(C(=O)N1CCC(C(=O)c2ccc(OC)c(C)c2)CC1)c1ccc(OC)cc1 [Compound A24, 4-(4-methoxy-3-methyl-benzoyl)-piperidine-1-carboxylic acid ethyl-(4-methoxy-phenyl)-amide] | < 0.3 | 0.3 to 3 | 3 to 50
12 | COc1ccc(N(C)C(=O)N2CCC(C(=O)c3cccc(OC)c3)CC2)cc1 [Compound A27, 4-(3-methoxy-benzoyl)-piperidine-1-carboxylic acid (4-methoxy-phenyl)methyl-amide] | < 0.3 | 0.3 to 3 | 3 to 50
13 | CCOC(=O)CN(C(=O)N1CCC(C(=O)c2ccc(OC)cc2)CC1)c1ccccc1 [Compound A40, {[4-(4-methoxy-benzoyl)-piperidine-1-carbonyl]-phenyl-amino}-acetic acid ethyl ester] | < 0.3 | 0.3 to 3 | 3 to 50
14 | CN(C(=O)N1CCC(C(=O)c2ccccc2)CC1)c1ccc(F)cc1 [Compound A13, 4-benzoyl-piperidine-1-carboxylic acid (4-fluoro-phenyl)-methyl-amide] | 0.3 to 3 | 0.3 to 3 | 3 to 50
15 | Cc1ccc(N(C)C(=O)N2CCC(C(=O)c3ccccc3)CC2)cc1 [Compound A2, 4-benzoyl-piperidine-1-carboxylic acid methyl-p-tolyl-amide] | 0.3 to 3 | 0.3 to 3 | 3 to 50
16 | Cc1ccc(C(=O)C2CCN(C(=O)N3CCc4ccccc43)CC2)cc1 [Compound A17, (2,3-dihydro-indol-1-yl)-[4-(4-methyl-benzoyl)-piperidin-1-yl]-methanone] | 0.3 to 3 | 0.3 to 3 | 3 to 50
17 | CCN(C(=O)N1CCC(C(=O)c2cccc(OC)c2)CC1)c1ccc(OC)cc1 [Compound A28, 4-(3-methoxy-benzoyl)-piperidine-1-carboxylic acid ethyl-(4-methoxy-phenyl)amide] | < 0.3 | < 0.3 | 3 to 50
18 | COc1ccc(N(C)C(=O)N2CCC(C(=O)c3ccc(OC)c(F)c3)CC2)cc1 [Compound A29, 4-(3-fluoro-4-methoxy-benzoyl)-piperidine-1-carboxylic acid (4-methoxy-phenyl)-methyl-amide] | – | 0.3 to 3 | 3 to 50
19 | COc1ccc(N(C)C(=O)N2CCC(C(=O)c3ccc(C)cc3)CC2)cc1 [Compound A5, 4-(4-methyl-benzoyl)-piperidine-1-carboxylic acid (4-methoxy-phenyl)-methylamide] | < 0.3 | 0.3 to 3 | 3 to 50
20 | O=C(c1ccccc1)C1CCN(C(=O)N2CCc3ccccc32)CC1 [Compound A16, (4-benzoyl-piperidin-1-yl)-(2,3-dihydro-indol-1-yl)-methanone] | 0.3 to 3 | 0.3 to 3 | 3 to 50
21 | COc1ccc(N(CCO)C(=O)N2CCC(C(=O)c3ccccc3)CC2)cc1 [Compound A15, 4-benzoyl-piperidine-1-carboxylic acid (2-hydroxy-ethyl)-(4-methoxy-phenyl)amide] | 0.3 to 3 | 0.3 to 3 | 3 to 50
